US9840509B2, “Heterocyclic compounds” (CADILA HEALTHCARE LIMITED, priority 2014, dated 2017)

Columns and labels:
[1] = test system: CIA Arthritis Model; test: Collagen induced arthritis (CIA) study in mice; assay type: in vivo; details: Dose: 10 mpk, po, Mean ± SD, n = 8
Experimental: All the animal experiments were carried out in female rats and mice, bred in-house. Animals were housed in groups of 6 animals per cage, for a week, in order to habituate them to vivarium conditions (25±4° C., 60-65% relative humidity, 12: 12 h light: dark cycle, with lights on at 7.30 am). All the animal experiments were carried out according to the internationally valid guidelines following approval by the ‘Zydus Research Center animal ethical committee’.
Protocol for Collagen Induced Arthritis (CIA) Study in Mice
CIA is a frequently used animal model of human RA (Courtenay, J. S., Dallman, M. J., Dayan, A. D., Martin, A. and Mosedale, B., Nature, 1980, 283, 666-668; Bevaart, L., Vervoordeldonk, M. J., Tak, P. P., Methods Mol. Biol., 2010, 602, 181-192). Following 7 days acclimation, mice were randomly assigned to groups according body weight. Mice were immunized subcutaneously in the tail using bovine type II collagen mix in complete Freund's adjuvant (CFA). Twenty-one days after the first immunization, mice were given booster dose of collagen in incomplete Freund's adjuvant (IFA). Mice were monitored every other day after the booster dose for the development of arthritis. Mice were recruited for the study once clinical signs were visible. Eight animals were assigned each of three groups [vehicle, positive control and test compounds] and treatment was continued for four weeks and percentage inhibition in clinical score is recorded as per graded score. Body weights of the animals were also recorded 3 times a week as a measure of treatment related side effect, paw thickness measured twice a week and blood serum are collected at termination for cytokines profile.

[2] = test system: SCW Arthritis Model; test: SCW Arthritis model (PGPS-induced paw swelling); assay type: in vivo, Female Sprague dawley (SD) rats; details: Dose: 10 mpk, po, rats, Mean ± SD, n = 8
Experimental: All the animal experiments were carried out in female rats and mice, bred in-house. Animals were housed in groups of 6 animals per cage, for a week, in order to habituate them to vivarium conditions (25±4° C., 60-65% relative humidity, 12: 12 h light: dark cycle, with lights on at 7.30 am). All the animal experiments were carried out according to the internationally valid guidelines following approval by the ‘Zydus Research Center animal ethical committee’. SCW Arthritis Female Sprague dawley (SD) rats were primed with an intra-articular injection of 20 μl of peptidoglycan polysaccharide (PGPS), at 0.5 mg/ml of rhamnose in the right ankle. At 2 weeks the paw swelling were measured using a plethysmometer and rats assigned to groups based on initial paw swelling. On day 14 after model initiation, rats were dosed orally (po) with the test compounds. Following the dose administration, 1 h later, the rats received a booster dose of 0.5 ml of PGPS (0.5 mg/ml of rhamnose) via i.v. injection using their tail vein. Compounds were dosed for the following two more days and their paw volumes were measured for 3 more days. The efficacy of the compound was determined as percentage inhibition of paw swelling verses the control (untreated) group.

[3] = molecular target: T1, CYP 2C8 (Homo sapiens, UniProt P10632); test: CYP inhibition in human liver microsomes, 2C8; assay type: in vitro ADME; details: pH 7.4, @ 10 μM concn
T1 construct: from tissue; host or cells: human liver microsomes
T1 sequence (P10632 1-490): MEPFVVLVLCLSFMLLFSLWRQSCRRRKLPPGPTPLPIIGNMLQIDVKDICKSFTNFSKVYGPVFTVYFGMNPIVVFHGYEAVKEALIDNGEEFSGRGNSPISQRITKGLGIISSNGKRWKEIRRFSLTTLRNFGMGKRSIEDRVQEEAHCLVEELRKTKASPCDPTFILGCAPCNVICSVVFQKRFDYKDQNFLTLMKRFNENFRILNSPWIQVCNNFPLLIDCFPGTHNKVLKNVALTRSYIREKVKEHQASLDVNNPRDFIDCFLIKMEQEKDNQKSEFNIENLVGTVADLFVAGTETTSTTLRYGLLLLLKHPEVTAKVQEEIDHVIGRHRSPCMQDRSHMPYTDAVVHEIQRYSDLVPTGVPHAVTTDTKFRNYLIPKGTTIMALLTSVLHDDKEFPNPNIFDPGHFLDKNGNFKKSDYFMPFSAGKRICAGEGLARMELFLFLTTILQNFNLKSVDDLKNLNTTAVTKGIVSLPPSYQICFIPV
Summary of the method: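 Test compounds at […] and 10 μM were incubated in duplicate with human liver microsomes, probe substrate and 1 mM NADPH in 100 mM phosphate buffer pH 7.4 at 37° C. Reactions were stopped with acetonitrile containing internal standard, and the marker-reaction metabolite was quantified by LC-MS/MS.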

Row | SMILES | % inhibition of clinical score, Day-28, in CIA Arthritis Model [1] | % inhibition of paw inflammation, Day-16, in SCW Arthritis Model [2] | inhibition at 10 μM [3]
1 | C=CC(=O)N1CC2CC(n3nc(-c4ccc(C(=O)N(C)c5cc(C)ccn5)cc4)c4c(N)ncnc43)CC2C1 (stereo not drawn) [Compound 54, 4-(1-(2-acryloyloctahydrocyclopenta[c]pyrrol-5-yl)-4-amino-1H-pyrazolo[3,4-d]pyrimidin-3-yl)-N-methyl-N-(4-methylpyridin-2-yl)benzamide] | 98 ± 4.5% | 89.2 ± 10.3% | < 50%
2 | C=CC(=O)N1CC2CC(n3nc(-c4ccc(NC(=O)c5ccccn5)cc4)c4c(N)ncnc43)CC2C1 (stereo not drawn) [Compound 32, N-(4-(1-(2-acryloyloctahydrocyclopenta[c]pyrrol-5-yl)-4-amino-1H-pyrazolo[3,4-d]pyrimidin-3-yl)phenyl)picolinamide] | 100 ± 3.9% | 75.3 ± 6.2% | < 50%
3 | C=CC(=O)N1CC2CC(n3nc(-c4ccc(C(=O)Nc5cc(C)ccn5)cn4)c4c(N)ncnc43)CC2C1 (stereo not drawn) [Compound 42, 6-(1-(2-acryloyloctahydrocyclopenta[c]pyrrol-5-yl)-4-amino-1H-pyrazolo[3,4-d]pyrimidin-3-yl)-N-(4-methylpyridin-2-yl)nicotinamide] | 100 ± 4.2% | 51.3 ± 9.7% | < 50%
4 | C=CC(=O)N1CC2CC(N3C(=O)N(c4ccc(Oc5ccccc5)cc4)C4C(N)=NC=NC43)CC2C1 (stereo not drawn) [Compound 25, 9-(2-acryloyloctahydrocyclopenta[c]pyrrol-5-yl)-6-amino-7-(4-phenoxyphenyl)-5,7-dihydro-4H-purin-8(9H)-one] | 90.1 ± 6.3% | 69.6 ± 12.7% | < 50%
5 | C=CC(=O)N1CC2CC(n3nc(-c4ccc(-c5nnc(-c6cnccn6)s5)cc4)c4c(N)ncnc43)CC2C1 (stereo not drawn) [Compound 46, 1-(5-(4-amino-3-(4-(5-(pyrazin-2-yl)-1,3,4-thiadiazol-2-yl)phenyl)-1H-pyrazolo[3,4-d]pyrimidin-1-yl)hexahydrocyclopenta[c]pyrrol-2(1H)-yl)prop-2-en-1-one] | 88 ± 7.1% | 81.8 ± 11.2% | < 50%
